Patent US20230240291A1, “FUNGICIDAL COMPOSITIONS” (SYNGENTA CROP PROTECTION AG, priority 2020, published 2023)
*1 amine or outer side, *2 acyl side, *3 side chain or, on linkers, in order; H or OH if unused. Where a SMILES comes first, the peptide text is derived from it. [ ]: non-standard residue; d: D form. ξ: configuration not given here. ξNMeVal(3-OH) = CNC(C(=O)O)C(C)(C)O; NMeF = CN[CH](Cc1ccccc1)C(=O)O; X1 = CCC(C)C(O[*:1])C(=O)[*:2]; NMeV = CN[CH](C(=O)O)C(C)C

How the values were obtained:
Botrytis cinerea = experiment: microbe, parasite or virus in culture; format: cell-based; conditions: 72 hours
Method: Mycelia fragments or conidia suspensions of a fungus, prepared either freshly from liquid cultures of the fungus or from cryogenic storage, are directly mixed into nutrient broth. DMSO solutions of the test compound (max. 10 mg/mL) is diluted with 0.025% Tween20 by factor 50 and 10 µL of this solution is pipetted into a microtiter plate (96-well format). […] The test plates are incubated in the dark at 24° C. and 96% relative humidity (rh). The inhibition of fungal growth is determined photometrically and visually after 3 - 7 days, depending on the pathosystem, and percent antifungal activity relative to the untreated check is calculated.
Conidia of the fungus from cryogenic storage were directly mixed into nutrient broth (PDB potato dextrose broth). After placing a DMSO solution of the test compositions into a microtiter plate (96-well format), the nutrient broth containing the fungal spores was added.

Alternaria solani = format: cell-based; conditions: 48 hours
Method: Mycelia fragments or conidia suspensions of a fungus, prepared either freshly from liquid cultures of the fungus or from cryogenic storage, are directly mixed into nutrient broth. DMSO solutions of the test compound (max. 10 mg/mL) is diluted with 0.025% Tween20 by factor 50 and 10 µL of this solution is pipetted into a microtiter plate (96-well format). The nutrient broth containing the fungal spores/mycelia fragments is then added to give an end concentration of the tested compound. The test plates are incubated in the dark at 24° C. and 96% relative humidity (rh). The inhibition of fungal growth is determined photometrically and visually after 3 - 7 days, depending on the pathosystem, and percent antifungal activity relative to the untreated check is calculated.
Conidia of the fungus from cryogenic storage were directly mixed into nutrient broth (PDB potato dextrose broth). After placing a DMSO solution of the test compositions into a microtiter plate (96-well format) the nutrient broth containing the fungal spores was added.

CCC(C)C1NC(=O)C2CCCN2C(=O)C(Cc2ccccc2)N(C)C(=O)C(Cc2ccccc2)NC(=O)C(C(C)C)N(C)C(=O)C(C(C)CC)OC(=O)C(C(C)(C)O)N(C)C(=O)C(CC(C)C)NC(=O)C(C(C)C)N(C)C1=O (centres unmarked) [Aureobasidin A] (cyclo([ξNMeVal(3-OH)][X1][NMeV]F[NMeF]PI[NMeV]L); configuration not given here)
(A) inhibition (Botrytis cinerea; Aureobasidin A 0.01 ppm alone, fludioxonil table): 22% | (A) inhibition (Botrytis cinerea; Aureobasidin A 0.01 ppm alone, growth inhibition, photometric, iprodione table): 18% | (A) inhibition (Botrytis cinerea; Aureobasidin A 0.02 ppm alone, iprodione table): 60% | (A) inhibition (Alternaria solani; Aureobasidin A 0.005 ppm alone, growth inhibition, photometric): 11%

N#Cc1c[nH]cc1-c1cccc2c1OC(F)(F)O2 [Fludioxonil, fludioxonil]
inhibition at […] (Botrytis cinerea; Botrytis cinerea, Fludioxonil 0.0063 ppm alone, read-out: (B) inhibition): 0%

C=CCOC(Cn1ccnc1)c1ccc(Cl)cc1Cl (centres unmarked) [Imazalil]
(B) inhibition (Alternaria solani; component (B) 0.5 ppm alone): 35%

CC(C)NC(=O)N1CC(=O)N(c2cc(Cl)cc(Cl)c2)C1=O [Iprodione, iprodione]
inhibition at 0.125 ppm (Botrytis cinerea; Botrytis cinerea, Iprodione 0.125 ppm alone, read-out: (B) inhibition): 4% | inhibition at 0.25 ppm (Botrytis cinerea; Botrytis cinerea, Iprodione 0.250 ppm alone, read-out: (B) inhibition): 0%
